The source of these data is paper PMC10226132, “First-in-Class Selective Inhibitors of the Lysine Acetyltransferase KAT8” (Journal of Medicinal Chemistry, 2023).

Each structure is given as a SMILES string. Read-outs that look alike come from different tables or passages of the source.

Assay type in all cases: biochemical
For experiment [1], the target named is T1, KAT8 (Homo sapiens, UniProt Q9H7Z6).
T1 construct: using the previously purified KAT8 (173–458, 5 nM); 6xHis tag with TEV protease cleavage site (N, cleaved yes); made in house; host or cells: E. coli BL21(DE3)
T1 sequence (Q9H7Z6 173-458): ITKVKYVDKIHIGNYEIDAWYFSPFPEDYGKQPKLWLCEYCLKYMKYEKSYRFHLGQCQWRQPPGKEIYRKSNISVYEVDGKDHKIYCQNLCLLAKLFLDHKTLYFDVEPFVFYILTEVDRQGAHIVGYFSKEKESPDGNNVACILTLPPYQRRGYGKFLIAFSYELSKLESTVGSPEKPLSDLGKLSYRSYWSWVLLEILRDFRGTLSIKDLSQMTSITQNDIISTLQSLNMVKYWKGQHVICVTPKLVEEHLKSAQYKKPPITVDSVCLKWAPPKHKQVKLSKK
In words: Radioactive KAT8 inhibition assay. How it is done:
Purified KAT8 was incubated with the relevant inhibitor (1% DMSO final) in a 2-fold serial dilution starting at 200 μM for 20 min at rt. Then, [^3H]Ac-CoA and biotinylated peptide were added to a total assay volume of 50 μL and the reaction mixture was incubated at rt for 4 h. The reaction was stopped, and the mixture was transferred to a 96-well streptavidin scintillant coated FlashPlate (Perkin Elmer) and incubated for 60 min at rt. The FlashPlate was washed with 0.1% Tween-20, and the liquid scintillation counting (MicroBeta Microplate Counter, Perkin Elmer) was employed to measure the radioactive signal. Experiments were performed in biological triplicates. Signal reduction compared to control was plotted (as inhibition percentage) as a function of compound concentration and fitted by nonlinear regression (GraphPad Prism 8.0) finally yielding the IC50 values.

Experiment [2] has as its target T2, KAT3B (Homo sapiens, UniProt Q09472).
T2 construct: KAT3B (aa 1284–1672, 1 nM); purchased Reaction Biology Corporation
T2 sequence (Q09472 1284-1672): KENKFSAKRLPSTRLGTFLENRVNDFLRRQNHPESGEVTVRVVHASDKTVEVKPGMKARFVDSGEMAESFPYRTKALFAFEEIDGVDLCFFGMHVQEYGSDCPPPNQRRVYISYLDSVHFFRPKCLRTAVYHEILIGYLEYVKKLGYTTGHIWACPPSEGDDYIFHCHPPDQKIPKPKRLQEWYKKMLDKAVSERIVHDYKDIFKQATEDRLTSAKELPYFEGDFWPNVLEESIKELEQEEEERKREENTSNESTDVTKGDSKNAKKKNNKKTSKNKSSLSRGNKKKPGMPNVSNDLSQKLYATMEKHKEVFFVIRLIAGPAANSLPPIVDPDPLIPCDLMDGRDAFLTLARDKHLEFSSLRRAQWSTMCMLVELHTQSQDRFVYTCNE
In words: HotSpot KAT assay, KAT3B. The settings on record: read-out: IC50 KAT3B (1 nM); enzyme 1 nM; NI = no inhibition at 200 μM; mean ± SD of three independent experiments. The procedure:
The effects of the compounds on other KATs were determined using the HotSpot KAT assay (Reaction Biology Corporation, Malvern, PA, USA) according to the supplier’s procedure. […] Histone peptide acetylation was assessed by liquid scintillation counting using a Tri-Carb 2800TR Liquid Scintillation Analyzer (Perkin Elmer). Experiments were performed in biological triplicates. Signal reduction compared to control was plotted (as inhibition percentage) as a function of compound concentration. In cases in which an IC50 was calculated, the values were fitted by nonlinear regression (GraphPad Prism 8.0).

Experiment [3] deals with T3, KAT2B (Homo sapiens, UniProt Q92831).
T3 construct: KAT2B (aa 492–658, 25 nM); purchased Reaction Biology Corporation
The experiment can be described thus: HotSpot KAT assay, KAT2B. The following applies: enzyme 25 nM; NI = no inhibition at 200 μM; mean ± SD of three independent experiments. How it is done: The effects of the compounds on other KATs were determined using the HotSpot KAT assay (Reaction Biology Corporation, Malvern, PA, USA) according to the supplier’s procedure. The recombinant catalytic domains of human KAT2A (aa 323–837, 15 nM), KAT2B (aa 492–658, 25 nM), KAT3B (aa 1284–1672, 1 nM), KAT6A (aa 488–778, 10 nM), KAT6B (aa 657–1069, 10 nM), and full length human KAT5 (25 nM) and KAT7 (25 nM) were used. Each enzyme was incubated with the relevant histone peptide [H3 peptide for KAT2A, KAT2B, KAT3B, KAT6A, and KAT7 (2.5–5 μM, depending on the KAT isoform); H2A peptide for KAT5 (1.25 μM); H4 peptide for KAT6B (2.5 μM)] as a substrate and radio-isotope-labeled [^3H]Acetyl-CoA (0.2–1.5 μM, depending on the KAT isoform) as an acetyl donor in the assay buffer [50 mM Tris–HCl (pH 8.0), 50 mM NaCl, 0.1 mM EDTA, 1 mM DTT, 0.1 mM PMSF, 1% DMSO] for 1 h at 30 °C in the presence or absence of various compounds (1% DMSO final) titrated in a 2-fold serial dilution starting at 200 μM. Histone peptide acetylation was assessed by liquid scintillation counting using a Tri-Carb 2800TR Liquid Scintillation Analyzer (Perkin Elmer). Experiments were performed in biological triplicates. Signal reduction compared to control was plotted (as inhibition percentage) as a function of compound concentration. In cases in which an IC50 was calculated, the values were fitted by nonlinear regression (GraphPad Prism 8.0).

Where [4] appears, read: read-out: IC50 KAT8 (5 nM), enzyme 5 nM, 2-fold serial dilution from 200 μM, NI = no inhibition at 200 μM, mean ± SD of three independent experiments.

The IC50 is the concentration that inhibits the measured activity by half.

T3 sequence (Q92831 492-658): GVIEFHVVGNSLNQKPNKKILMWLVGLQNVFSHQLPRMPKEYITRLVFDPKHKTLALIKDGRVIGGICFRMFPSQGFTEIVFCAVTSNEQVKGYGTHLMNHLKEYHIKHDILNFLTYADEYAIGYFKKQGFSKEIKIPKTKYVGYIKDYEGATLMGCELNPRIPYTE

Regarding `CC1=NN(c2ccc(C(N)=O)cc2)C(=O)/C1=C\c1ccc[nH]1` [Compound 37, (Z)-4-(4-((1H-Pyrrol-2-yl)methylene)-3-methyl-5-oxo-4,5-dihydro-1H-pyrazol-1-yl)benzamide], the IC50 in experiment [1] (setting [4]) was 33.2 ± 2.4 µM; in experiment [2], greater than 200 µM; in experiment [3], greater than 200 µM.
`CC1=NN(c2ccc(C(=O)O)cc2)C(=O)/C1=C\c1c[nH]c2ccccc12` [Compound 27, (Z)-4-(4-((1H-Indol-3-yl)methylene)-3-methyl-5-oxo-4,5-dihydro-1H-pyrazol-1-yl)benzoic Acid]: the 50% inhibitory concentration (IC50) in experiment [1] (setting [4]) was 38.1 ± 2.9 µM; in experiment [2] it was 4.6 ± 0.2 µM; in experiment [3], greater than 200 µM.
Regarding `O=C(O)c1ccc(N2N=C(Cc3ccccc3)/C(=C/c3ccc[nH]3)C2=O)cc1` [Compound 35, (Z)-4-(4-((1H-Pyrrol-2-yl)methylene)-3-benzyl-5-oxo-4,5-dihydro-1H-pyrazol-1-yl)benzoic Acid], the IC50 in experiment [1] was 38.1 ± 3.8 µM; in experiment [2], greater than 200 µM; in experiment [3], greater than 200 µM.
Turning to `Cc1nn(-c2ccc(C(=O)O)cc2)c(O)c1Cc1ccc[nH]1` [Compound 31, 4-(4-((1H-Pyrrol-2-yl)methyl)-5-hydroxy-3-methyl-1H-pyrazol-1-yl)benzoic Acid], the IC50 in experiment [1] (setting [4]) was 17.2 ± 1.2 µM; in experiment [2], greater than 200 µM; in experiment [3], greater than 200 µM.
Take `CC1=NN(c2ccc(C(=O)O)cc2)C(=O)/C1=C\c1cc(C(=O)c2ccccc2Cl)c[nH]1` [Compound 5, (Z)-4-(4-((4-(2-Chlorobenzoyl)-1H-pyrrol-2-yl)methylene)-3-methyl-5-oxo-4,5-dihydro-1H-pyrazol-1-yl)benzoic Acid]: the values for the IC50 in experiment [1] (setting [4]), in experiment [2] and in experiment [3] were 88.9 ± 12.1 µM, 5.3 ± 0.3 µM and greater than 200 µM, respectively.
The corresponding values for `CC1=NN(c2ccc(C(=O)O)cc2)C(=O)/C1=C\c1cccs1` [Compound 21, (Z)-4-(3-Methyl-5-oxo-4-(thiophen-2-ylmethylene)-4,5-dihydro-1H-pyrazol-1-yl)benzoic Acid] are 20.8 ± 1.2 µM, 26.5 ± 1.7 µM and greater than 200 µM.
The corresponding values for `CC1=NN(c2ccc(C(=O)O)cc2)C(=O)/C1=C\c1c[nH]cn1` [Compound 25, (Z)-4-(4-((1H-Imidazol-4-yl)methylene)-3-methyl-5-oxo-4,5-dihydro-1H-pyrazol-1-yl)benzoic Acid] are 31.8 ± 2.1 µM, 29.2 ± 1.7 µM and greater than 200 µM.
The corresponding values for `CC1=NN(c2ccc(C(=O)O)cc2)C(=O)/C1=C\c1cc[nH]c1` [Compound 23, (Z)-4-(4-((1H-Pyrrol-3-yl)methylene)-3-methyl-5-oxo-4,5-dihydro-1H-pyrazol-1-yl)benzoic Acid] are 33 ± 2 µM, greater than 200 µM and greater than 200 µM.
Take `CC1=NN(c2ccc(C(=O)O)cc2)C(=O)/C1=C\c1cc(C(=O)c2ccccc2[N+](=O)[O-])c[nH]1` [Compound 2, (Z)-4-(3-Methyl-4-((4-(2-nitrobenzoyl)-1H-pyrrol-2-yl)methylene)-5-oxo-4,5-dihydro-1H-pyrazol-1-yl)benzoic Acid]: the IC50 was 86.2 ± 10 µM in experiment [1] (setting [4]), 9.1 ± 0.6 µM in experiment [2] and greater than 200 µM in experiment [3].
Taken in the same sequence, the figures for `CC1=NN(c2ccc(C(=O)O)cc2)C(=O)/C1=C\c1cc(C(=O)c2ccccc2C)c[nH]1` [Compound 13, (Z)-4-(3-Methyl-4-((4-(2-methylbenzoyl)-1H-pyrrol-2-yl)methylene)-5-oxo-4,5-dihydro-1H-pyrazol-1-yl)benzoic Acid] were 95 ± 10.2 µM, 8.9 ± 0.6 µM and greater than 200 µM.
Turning to `CC1=NN(c2ccc(C(=O)O)cc2)C(=O)/C1=C\c1ccn[nH]1` [Compound 24, (Z)-4-(4-((1H-Pyrazol-5-yl)methylene)-3-methyl-5-oxo-4,5-dihydro-1H-pyrazol-1-yl)benzoic Acid], the values for the IC50 in experiment [1] (setting [4]), in experiment [2] and in experiment [3] were 44.1 ± 3 µM, greater than 200 µM and greater than 200 µM, respectively.
